Data as given in patent US20230190703A1, “TREATING SAR-COV-2 RELATED HEALTH PROBLEMS” (priority 2021, published 2023).

What was measured:
colo 320 cells [1] = type: cell-based, human
U937 cells [2] = assay: LDH assay (percent cytotoxicity); type: cell-based, human; settings: for cytotoxicity decrease: 10 μM, cytotoxicity induced by SPK; for effect on SPK-induced cytotoxicity at higher concentration: as concentrations increased (100 μM); for effect on cytotoxic effect of SPK (LDH): combined with SPK
Protocol: (§1) The cells used in this example originated from the cell line U937 cells and were purchased from ATCC.
10 μls of chemicals provided by ATCC were added into a 96-well plate with the treatment plan of control, control, control, SPK 10 μM, A1 10 μM, A1 100 μM, A2 10 μM, A2 100 μM, SPK+A1 10 μM, SPK+A1 100 μM, SPK+A2 10 μM, and SPK+A2 100 μM. After incubation for 48 hours, 30 μls of media from each well were removed and added into another 96 well plate labeled as released LDH. 30 microliters of LDH substrate mix were added to the released LDH plate to measure the released LDH by the cells from the treatments. This plate was left at room temperature and away from direct light for 30 minutes. After 30 minutes, 30 μls of LDH stop solution was added to each well to terminate the assay and prevent further color changes. The plate was placed in a microplate reader and optical density (OD) was determined for each sample at 490 nm. Another reading at 655 nm was performed to determine if there was any background interference with the reading. Then, 10 μls of LDH lysis buffer were added to the original plate containing the cells to lyse all the cells and to measure a total or maximum LDH for each sample. Another empty 96 well plate was then labeled total LDH. 30 μls of the cell lysate and media were transferred from the original plate containing the lysed cells into the empty 96 well plate labeled as total LDH. 30 μls of LDH substrate mix were added to each sample to measure the total LDH. The plate was left at room temperature for 30 minutes away from direct light. After the 30 minutes, 30 μls of LDH stop solution were added to each well to terminate the experiment. The OD of the total LDH plate was measured following the same measurement steps for the released LDH. The data collected from the 490 nm wavelength was subtracted by the data collected from the 655 nm wavelength to find the corrected OD for each sample's released and total LDH. The percent cytotoxicity was later calculated by the equation: (Sample OD released LDH−control OD released LDH)/(Sample OD total LDH−control OD released LDH)*100 and T-tests were applied to each group to measure significance for percent cytotoxicity.

monocyte = settings: literature; cited from earlier work
U937 cells [3] = type: cell-based, human
colo 320 cells [4] = tested on: colo 320 cells
U937 cells [5] = assay: caspase 9 assay; type: cell-based, human; settings: with SPK
Protocol: as §1
The cells were treated in a 6-well plate with the treatment plan of control, A1 10 μM, A2 10 μM, SPK10 μM, A1+SPK10 μM, and A2+SPK10 μM for 24 hours and collected in a 1.5 ml tube. Then, Colo cells were lysed by freezing and thawing 4 times. Then, 50 μl of caspase assay buffer will be added to every well of an empty 96-well plate. Also, 50 μl of lysis buffer will be added to the blank wells and 45 μl added to the treatment and control wells. 5 μl of lysed cells will be added to each treatment well with 5 μl of pNA Substrate Solution indeed to every well. The plate will then be taken for a reading at zero time point using a microplate reader at 405 nm. Afterwards, the plate will be covered and incubated at 37 degrees Celsius. […] The data from the Caspase Assay will be analyzed by calculating the change in optical density per minute (ΔOD). The ΔOD is obtained through subtracting the sample's start OD from the sample's final OD to determine the overall change in absorbance. The ΔOD/minutes is calculated by taking the ΔOD and dividing by the overall time in minutes. The ΔOD per minute of each sample is compared to the control by a percent change to determine the activity of caspase and apoptosis. The OD of the blank samples are subtracted from the OD of the treated sample to normalize the data and ensure minimal interference.

Row | SMILES | mitigation of SPK induced caspase apoptosis (colo 320 cells [1]) | cytotoxicity decrease (U937 cells [2]) | effect on SPK-induced cytotoxicity at higher concentration (U937 cells [2]) | effect on cytotoxic effect of SPK (LDH) (U937 cells [2]) | monocyte cell adhesion (monocyte) | decrease in adhesion molecule expression (U937 cells [3]) | decrease of cell adhesion (U937 cells [3]) | effect on adhesion molecule expression, in words (U937 cells [3]) | mitigation of SPK induced cytotoxicity (colo 320 cells [4]) | decrease of caspase activity that was increased by SPK (U937 cells [5]) | effect on SPK caused apoptosis (caspase) (U937 cells [5])
1 | C[C@@H]1CC[C@H]2[C@@H](C)C(=O)O[C@@H]3O[C@@]4(C)CC[C@@H]1[C@]32OO4 [A1, Artemisinin] | remediate the increase in caspase apoptosis to a negative level | around 2.4% | the effectiveness decreased | reversed the cytotoxic effect of SPK from a positive value to a negative value | inhibit monocyte cell adhesion | around 70% | about 73% | significantly decreased the adhesion molecule expression | changed the cytotoxicity to a negative value | around 68% | decrease SPK caused apoptosis significantly
2 | C[C@H]1[C@H](OC(=O)CCC(=O)O)O[C@@H]2O[C@@]3(C)CC[C@H]4[C@H](C)CC[C@@H]1[C@@]24OO3 [A2, Artesunate] | remediate the increase in caspase apoptosis to a negative level | around 0.8% | the effectiveness decreased | reversed the cytotoxic effect of SPK from a positive value to a negative value | inhibit monocyte cell adhesion | around 68% | around 70% | significantly decreased the adhesion molecule expression | changed the cytotoxicity to a negative value | ~70% | decrease SPK caused apoptosis significantly
